Tests used:
[1] = system: polymorphkernigen Leucocyten (PMNL); experiment: Chemiluminescence measurement (modified after Allen), zymosan-stimulated PMNL; format: cell-based; conditions: concentration range 10^-1 bis 10^-2 mg/ml
Source text: (§1) Die vorliegende Erfindung beruht auf dem erstmaligen Nachweis einer Immunstimulation durch 1,4-Naphthochinon-Derivate der angegebenen Art. Die Immunstimulation läßt sich experimentell in vitro und in vivo klar nachweisen. Als geeignete immunologische Testverfahren dienen der Carbon Clearance-Test (CCT)-RES-Funktion (Biozzi, G. Benacerraf, B. und Halpern, B.N., Br. J. Exp.Pathol. 34, 441 (1953)); der Granulocyten-Test gemäß Brandt, L., Scand.J.Haematol. Suppl. 2 (1967), der vorzugsweise in modifizierter Form angewandt wird; sowie eine Chemoluminenszenz-Messung nach Allen (Allen, R.C. in "Bioluminescence and Chemiluminescence; Basic Chemistry and Analytical Applications", Eds: De Luca und Mc Elroy, S. 63-73, Academie Press, New York, 1981).
• a) PBS-Puffer ohne Ca^2+ und Mg^2+ (steril) (Fa. Biochrom, Berlin) • b) Veronal-gepufferte Kochsalzlösung mit Ca^2+, Mg^2+, Glucose und Albumin Stammlösung: 8.3 g NaCl, 1.02 g Natrium, 5,5-Diäthylbarbiturat (Veronal), 102 mg MgCl2, 22 mgCaCl2 in 150 ml H2O (bidest.) lösen, + 3.5 ml 1M IICL auf 200 ml mit H20 (bidest.) auffüllen. Von dieser Stammlösung werden 40 ml mit 140 ml H20 (bidest.) verdünnt, mit 1M HCL auf pH 7.0 eingestellt und mit II20 (bidest.) auf 200 ml auf gefüllt. […]

[2] = system: Granulozyten; experiment: Granulocyte test (modified after Brandt), phagocytosis of yeast particles; format: cell-based; conditions: concentration range 10^-1 bis 10^-2 mg/ml
Source text: as §1
In 20 ml Spritze 1 Tropfen Heparin (Thrombophob) und ca. 10 ml Blut abnehmen und mit 1,5% Dextran T 500 im Verhältnis 2:1 mischen. Kanüle auf der Spritz umbiegen und 30 Minuten bei 25°C absetzen lassen (ca. 2-3 ml Blut für Eigenserum abnehmen).
Den Überstand (Leukozytensuspension) in steriles Röhrchen überspritzen; 7 Minuten bei 500 U. zentrifugieren.
Überstand weggießen, Bodensatz (Leukozyten) 2 mal mit RPM I-Puffer bei 500 U. waschen.
Granulozyten mit ca. 5 ml Puffer auffüllen und Zellen auf 5 x 10 x 10^6 einstellen. […] Zellsuspension in 0,475 ml 3 % iger Essigsäure mischen. In Neubauerkammer 4 Quadrate auszählen (100 Zellen/Kammer). […]

CC1=CC(=O)c2c(O)cccc2C1=O [Plumbagin]
effect at higher concentrations [1]: Phagocytosehemmung sowie eine Immunsuppression bzw. Cytotoxicität
effect on phagocytosis at higher concentrations [2]: ausgeprägte Phagocytosehemmung

From patent publication EP0173262A2, “Use of 1,4-naphthoquinone derivatives in a low concentration as immunostimulating agents” (Carnivora-Deutschland GmbH, priority 1984, dated 1986)
